Laboratory results from patent US20100256173A1, “Method of Treating Cognitive Impairment” (priority 2009, published 2010).

Key:
[1] = system: rodent models of learning and memory; test: rodent models of learning and memory (age-impaired memory, chemical amnesic agents); assay type: in vivo; details: after both acute (single-dose) and chronic administration
Source text: The chemical name for ST101 is spiro(imidazo(1,2-a)pyridin-2(3H)-one-3,2′-indan).
(Yamaguchi Y., et al., J. Pharmacol. Exp. Ther. 317:1079-87 (2006); Ito Y., et al., J. Pharmacol. Exp. Ther. 320: 819-27 (2007)).

[2] = system: nicotine-stimulated release of acetylcholine (ACh); test: nicotine-stimulated release of acetylcholine
Source text: (§1) Experiments have shown that ST101 potentiates nicotine-stimulated release of acetylcholine (ACh), increases extracellular ACh concentrations in the cerebral cortex, and increases extracellular concentrations of both ACh and dopamine in the hippocampus.

[3] = system: extracellular ACh and dopamine in cerebral cortex and hippocampus; test: extracellular neurotransmitter concentrations in brain; assay type: in vivo
Source text: as §1

[4] = system: rodent models of learning and memory; details: cited from earlier work
[5] = system: Senescence Accelerated Mouse P8 (SAMP8); details: cited from earlier work
[6] = known from other studies; cited from earlier work

## O=C1N=C2C=CC=CN2C12Cc1ccccc1C2 [ST101, spiro(imidazo(1,2-a)pyridin-2(3H)-one-3,2′-indan)]
[1]
  pharmacological activity in rodent models of learning and memory relevant to AD: has shown pharmacological activity
[2]
  nicotine-stimulated release of acetylcholine (ACh): potentiates
[3]; cerebral cortex
  extracellular ACh concentrations: increases
[3]; hippocampus
  extracellular concentration of ACh: increases
  extracellular concentration of dopamine: increases
[4]; chemical amnesic agent methamphetamine
  memory deficits induced by methamphetamine: attenuates
[4]; glutamate receptor antagonist MK-801
  memory deficits induced by MK-801: attenuates
[4]; in vivo
  age-impaired memory: significantly improves
[4]; muscarinic antagonist scopolamine
  memory deficits induced by scopolamine: attenuates
[5]; SAMP8 mouse brain tissue
  accumulation of Aβ-like deposits: decreased
[5]; SAMP8 mouse
  learning and memory functions: improvement
[6]
  neuroprotective activity: has neuroprotective activity
